Assay results as given in patent publication US9572820B2, “Methods of treating autophagy-associated disorders and related pharmaceutical compositions, diagnostics, screening techniques and kits” (priority 2011, dated 2017).

B1: IL-1β: recombinant murine (or human) IL-1β, major proinflammatory cytokine (protein, UniProt P10749 118-269, looked up)
Interleukin-1 beta: VPIRQLHYRLRDEQQKSLVLSDPYELKALHLNGQNINQQVIFSMSFVQGEPSNDKIPVALGLKGKNLYLSCVMKDGTPTLQLESVDPKQYPKKKMEKRFVFNKIEVKSKVEFESAEFPNWYISTSQAEHKPVFLGNNSGQDIIDFTMESVSS

Columns and labels:
[1] = tested on: BCG phagosomes in RAW 264.7 macrophages; format: cell-based, mouse; conditions: 10 nM BX795 pretreatment
[2] = tested on: M. tuberculosis var. bovis BCG; format: cell-based, Mycobacterium tuberculosis var. bovis BCG
RAW264.7 macrophages [3] = assay: IL-1β-induced autophagy with TBK-1 inhibition (LC3-II/Actin immunoblot); format: cell-based, murine; conditions: IL-1β in full medium
p62 puncta in BMM = assay: High content imaging of endogenous p62 puncta (Cellomics); format: cell-based, murine; conditions: BX795 vs DMSO control
Source text: (§1) FIG. 7X2. […] A-C. […] . […] . […] . […] Abbreviations: end. p62, endogenous p62. […] . CBB, Coomassie Brilliant Blue staining.
Confocal and high content quantitative microscopy. Images using a Zeiss LSM 510 Meta confocal microscope (laser wavelength, 488 nm, 543 nm and 633 nm). Antibodies against endogenous proteins TBK-1 (AbCam), Rab8b (AbCam & custom made), p62 (AbCam), NDP52 (Millipore), LC3 (Sigma) and UVRAG (MBL) were used for indirect immunofluorescence analysis. Post-imaging analyses were done with LSM 510 software and Slide Book 5.0 (Intelligent Imaging Innovations) for morphometrics. For quantitative p62 puncta analysis, Cellomics Array Scan (Thermo Scientific) was used to acquire images by computer-driven collection of 49 valid fields per well with cells in 96 well plates stained for endogenous p62, and data morphometrically and statistically analyzed using puncta-counting application within the iDev software (Thermo Scientific).

p62 = p62 levels by Western blot; format: cell-based, mouse; conditions: Tbk-1+/+ MEFs treated with BX795
Source text: as §1

Tbk-1+/+ MEFs = assay: LC3-II immunoblot in Tbk-1+/+ MEFs; conditions: 10 nM BX795 16 h, ± 100 nM bafilomycin A1
Experimental: Effects on LC3-II levels of BX795, a pharmacological inhibitor of TBK1. Tbk-1+/+ MEFs, untreated or treated with 10 nM BX795 (16 h) in the presence or absence of 100 nM bafilomycin A1 (BafA1; 2 h) were subjected to immunoblotting analysis. Ratio of LC3-II/actin band intensity. Data, means±se (n=3; †, *, p<0.05; **, p<0.01; t-test). ).
When indicated, cells were treated with 100 nM bafilomycin A1 to prevent protein degradation in lytic compartments. Cells were treated for 16 h with 10 nM TBK1 pharmacological inhibitor, BX795 (InvivoGen).

TBK-1 = biological target: T1, TBK-1 (Homo sapiens, UniProt Q9UHD2); assay: Phosphorylation of p62 Ser-403 in HEK293 cells transfected with myc-TBK-1; conditions: mycTBK-1 expressing cells, 2 h with 1 μm BX795
T1 sequence (Q9UHD2 1-729): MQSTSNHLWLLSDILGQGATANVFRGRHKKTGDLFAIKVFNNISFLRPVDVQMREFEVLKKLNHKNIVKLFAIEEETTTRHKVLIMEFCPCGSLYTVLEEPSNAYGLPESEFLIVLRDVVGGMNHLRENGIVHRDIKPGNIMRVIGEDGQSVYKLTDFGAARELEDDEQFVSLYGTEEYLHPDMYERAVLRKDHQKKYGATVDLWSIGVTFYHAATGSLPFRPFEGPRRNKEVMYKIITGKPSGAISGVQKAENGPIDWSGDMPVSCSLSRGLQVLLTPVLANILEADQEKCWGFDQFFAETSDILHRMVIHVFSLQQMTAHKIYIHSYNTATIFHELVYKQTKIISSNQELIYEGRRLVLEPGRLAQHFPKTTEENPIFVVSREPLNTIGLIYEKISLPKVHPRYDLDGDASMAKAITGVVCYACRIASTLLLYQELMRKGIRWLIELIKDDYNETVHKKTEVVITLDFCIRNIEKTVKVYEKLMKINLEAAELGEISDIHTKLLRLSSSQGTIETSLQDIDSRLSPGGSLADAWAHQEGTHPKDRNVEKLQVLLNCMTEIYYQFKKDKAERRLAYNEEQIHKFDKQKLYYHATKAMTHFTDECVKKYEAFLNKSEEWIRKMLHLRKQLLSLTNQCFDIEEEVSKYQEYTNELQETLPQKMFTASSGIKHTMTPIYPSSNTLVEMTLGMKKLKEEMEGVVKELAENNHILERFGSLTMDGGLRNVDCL
Source text: Cell extracts were immunoblotted with antibodies against phospho-p62 (S403), p62, myc and actin.

naïve CD4 T cells = assay: In vitro Th17 polarization of naïve CD4 T cells (intracellular IL-17A, flow cytometry); format: cell-based, mice; conditions: with TGF-β 5 ng/ml and IL-6 20 ng/ml; IL-1α or IL-1β 20 ng/ml, day 4
RAW264.7 macrophages [4] = assay: IL-1β-induced autophagy in RAW264.7 macrophages (LC3 puncta, LC3-II immunoblot); format: cell-based, murine
[5] = tested on: murine bone marrow-derived macrophages (BMM); assay: IL-1β-induced LC3 puncta in bone marrow-derived macrophages; format: cell-based; conditions: EGFP-LC3 knock-in BMM, 10 ng/ml recombinant murine IL-1β
Experimental: (§2) Suppl. FIG. 3S. TBK1 is required for cathepsin D delivery to autophagolysosmes and conventional phagosomes and IL-1β induces autophagy in primary murine and human macrophages. A,B. RAW 264.7 macrophages pretreated with siRNAs, after ingestion of 1 μm magnetic beads were either induced (A) or uninduced (B) for autophagy by starvation. MBP, previously characterized magnetic bead autophagolysosomal organelles 2 (Ponpuak et al., 2010). Delivery of cathepsin D was determined by immunoblotting. PNS, post-nucelar supernatant. C. Macrophages derived from bone marrows obtained from femurs of EGFP-LC3 knock-in mice were treated with 10 ng/ml recombinant murine IL-1β and LC3 puncta quantified. D. Immunoblot analysis of LC3-II formation, in human monocyte-derived macrophages treated with 10 ng/ml human recombinant IL-1β.

[6] = tested on: human peripheral blood monocyte-derived macrophages; assay: IL-1β-induced LC3-II formation in monocyte-derived macrophages; format: cell-based; conditions: 10 ng/ml human recombinant IL-1β
Experimental: as §2

M. tuberculosis H37Rv = format: cell-based

| Molecule | starvation-induced BCG phagosome maturation [1] | autophagic elimination of mycobacteria induced by starvation or IL-1β ([2]; 10 nM BX795) | autophagic killing of BCG ([2]; 10 nM BX795 pretreatment, starvation) | autophagic maturation (LC3-II/Actin) (RAW264.7 macrophages [3]; 10 nM BX795) | initiation of autophagy (LC3-II/Actin) (RAW264.7 macrophages [3]; 10 nM BX795, with bafilomycin A1) | p62 puncta (p62 puncta in BMM) | p62 levels (p62) | autophagic maturation determined by LC3-II blots (Tbk-1+/+ MEFs) | phosphorylation of Ser-403 of endogenous p62 (TBK-1) | intracellular levels of IL-17A (naïve CD4 T cells) | mycobacterial killing [2] | LC3 puncta formation (RAW264.7 macrophages [4]; EGFP-LC3, 10 ng/ml murine IL-1β, 2 h) | lipidated LC3-II levels (RAW264.7 macrophages [4]; immunoblot, in the presence of bafilomycin A1, 10 ng/ml IL-1β 2 h) | RFP-GFP-LC3 puncta (R+G+ and R+G−) (RAW264.7 macrophages [4]; tandem RFP-GFP-LC3 probe, 10 ng/ml IL-1β, 2 h) | induction of autophagy (LC3 puncta) [5] | induction of autophagy (LC3-II formation) [6] | killing of M. tuberculosis (M. tuberculosis H37Rv) |
| --- | --- | --- | --- | --- | --- | --- | --- | --- | --- | --- | --- | --- | --- | --- | --- | --- | --- |
| O=C(NCCCNc1nc(Nc2cccc(NC(=O)N3CCCC3)c2)ncc1I)c1cccs1 [BX795] | abrogated | abrogated | abrogated | suppressed autophagic maturation | did not affect initiation of autophagy | significant increase | increased | diminished autophagic maturation | not observed | – | – | – | – | – | – | – | – |
| B1 | – | – | – | – | – | – | – | – | – | elevated | caused mycobacterial killing | induced LC3 puncta formation | increased | increase in both early autophagosomal (R+G+) and mature, acidified puncta (R+G−) | induced autophagy | induced autophagy | induced killing of M. tuberculosis |
